The values that follow are results of earlier work, collected in US11224220B2, “Surfactant composition based on glycine betaine amide salts, process for preparing same and uses thereof” (SURFACTGREEN, priority 2018, dated 2022).

For the data set the following is noted: prior art values (U.S. Pat. No. 7,829,521; Green Chem., 2008, 10, 310-320; WO 2013/188508 Table 5).

The structures appear in SMILES notation.

Turning to `CCCCCCCCCCCCNC(=O)C[N+](C)(C)C` [glycine betaine laurylamide], the surface tension (as a rule, the force per length acting along the surface) was 50 mN/m.
`CCCCCCCCCCCCNC(=O)C[N+](C)(C)C` [pure glycine betaine amide]: the surface tension is 38 mN/m.
